Measured values taken from patent US4200636A, “3-Amino-17a-aza-D-homoandrostane compounds, and pharmaceutical compositions containing them” (priority 1977, dated 1980).
Read-outs that look alike come from different tables or passages of the source.

How the values were obtained:
tibialis muscle = experiment: Neuromuscular block in anesthetized cats (electrically stimulated peroneal nerve, tibialis muscle contractions); format: in vivo; conditions: for ED50: i.v. dose reducing the contractions to half of their original values, 4 doses; for Activity period: i.v., time between first appearance of the effect and restoration of normal muscle contractions
Experimental: The potency and the activity period of the compounds according to the invention were tested on anesthesized cats and alert dogs. On anesthesized cats the peroneal nerve was electrically stimulated and the corresponding contractions of the tibialis muscle was registrated. The i.v. doses of the various test compounds which reduced the contractions to half of their original values were determined (ED50 -values). In the attached Table I the ED50 -values and the corresponding activity periods are shown, the term "activity period" is intended to mean the time interval between the first appearance of the effect of the test compounds and the restoration of the normal muscle contractions. For each test compound 4 doses were used and for each dose 6 animals were examined. As a reference compound suxamethonium was used, which is a known compound widely used as a neuromuscular blocking agent having a short activity period.

muscle relaxation = experiment: Total muscle relaxation in alert dogs; format: in vivo; conditions: for Activity period: time between administration and disappearance of the activity; for Time until the max. effect: time between administration and total muscle relaxation
Experimental: To alert dogs (6 animals for each test compound) four doses causing a total muscle relaxation were administered and the time between the administration and the total muscle relaxation as well as the time between the administration and the disappearance of the activity was measured.

[1] = Dose 100 (unit not printed), listed as 3 β-Pyrrolidino-17a-methyl-17a-aza-D-homo-5α -androstane-di-methoiodide
[2] = Dose 100 (unit not printed), listed as 3 β-Pyrrolidino-17a-methyl-17a-aza-D-homo-5 α-androstane-di-methobromide

With `C[C@]12CC[C@H]([N+]3(C)CCCC3)C[C@@H]1CC[C@@H]1[C@@H]2CC[C@@]2(C)[C@H]1CCC[N+]2(C)C` [3β-Pyrrolidino-17a-methyl-17a-aza-D-homo-5α-androstane dimethobromide] the ED50 (tibialis muscle; Felis catus, iv) was 0.125 mg/kg.

`C[C@]12CC[C@H]([N+]3(C)CCCC3)C[C@@H]1CC[C@@H]1[C@@H]2CC[C@@]2(C)[C@H]1CCC[N+]2(C)C` [3 β-Pyrrolidino-17a-methyl-17a-aza-D-homo-5α-androstane-di-m] [3β-Pyrrolidino-17a-methyl-17a-aza-D-homo-5α-androstane dimethoiodide] was tested, and the ED50 (tibialis muscle) was 0.105 mg/kg, the Activity period (tibialis muscle) was 12.6 min and the Activity period (muscle relaxation; [1]) was 8.8 min. The “Time until the max. effect” value (muscle relaxation; [1]) was 17 s.

In the case of `C[C@]12CC[C@H]([N+]3(C)CCCC3)C[C@@H]1CC[C@@H]1[C@@H]2CC[C@@]2(C)[C@H]1CCC[N+]2(C)C` [3 β-Pyrrolidino-17a-methyl-17a-aza-D-homo-5α-androstane-di-m] [3β-Pyrrolidino-17a-methyl-17a-aza-D-homo-5α-androstane dimethobromide], the Activity period (tibialis muscle) is reported as 13.0 min, the Activity period (muscle relaxation; [2]) is reported as 9.5 min and the “Time until the max. effect” value (muscle relaxation; [2]) is reported as 21 s.

In the case of `C[C@]12CC[C@@H]([N+]3(C)CCCC3)C[C@@H]1CC[C@@H]1[C@@H]2CC[C@@]2(C)[C@H]1CCC[N+]2(C)C` [3 αPyrrolidino-17a-methyl-17a-aza-D-homo-5α-androstane-di-me] [3α-Pyrrolidino-17a-methyl-17a-aza-D-homo-5α-androstane dimethoiodide], the ED50 (tibialis muscle) is reported as 0.12 mg/kg, the Activity period (tibialis muscle) is reported as 12.4 min and the Activity period (muscle relaxation; Dose 100 (unit not given)) is reported as 8.5 min. For the same molecule, the “Time until the max. effect” value (muscle relaxation; Dose 100 (unit not given)) was 19 s.

Molecule `C[C@]12CC[C@@H]([N+]3(C)CCCC3)C[C@@H]1CC[C@@H]1[C@@H]2CC[C@@]2(C)[C@H]1CCC[N+]2(C)C` [3α-Pyrrolidino-17a-methyl-17a-aza-D-homo-5α-androstane dimethobromide] has an ED50 (tibialis muscle; Felis catus, iv) of 0.1 mg/kg.

For `C[C@]12CC[C@@H]([N+]3(C)CCCC3)C[C@@H]1CC[C@@H]1[C@@H]2CC[C@@]2(C)[C@H]1CCC[N+]2(C)C` [3 α-Pyrrolidino-17a-methyl-17a-aza-D-homo-5α-androstane-di-m] [3α-Pyrrolidino-17a-methyl-17a-aza-D-homo-5α-androstane dimethobromide], the Activity period (tibialis muscle) was 11.2 min, the Activity period (muscle relaxation; Dose 100 (unit not given)) was 8.6 min and the “Time until the max. effect” value (muscle relaxation; Dose 100 (unit not given)) was 18 s.

In the case of `C[N+](C)(C)CCOC(=O)CCC(=O)OCC[N+](C)(C)C` [Suxamethonium, reference compound], the ED50 (tibialis muscle; Felis catus, iv, read-out: ED50) is reported as 0.06 mg/kg, the Activity period (tibialis muscle) is reported as 11.0 min and the Activity period (muscle relaxation; Dose 100 (unit not given)) is reported as 10.3 min. The “Time until the max. effect” value (muscle relaxation; Dose 100 (unit not given)) was 16 s.
